We go through 3 compounds from paper PMC10347550, “Cyclic Ruthenium-Peptide Conjugates as Integrin-Targeting Phototherapeutic Prodrugs for the Treatment of Brain Tumors” (Journal of the American Chemical Society, 2023).

Read-outs that look alike come from different tables or passages of the source.

A word on the EC50: it is the concentration needed to bring the measured effect to its halfway point. As usually defined, the Kd is the equilibrium constant for the complex coming apart.

The test system of one data set is A549 cells. Kind of data set: 2D cytotoxicity assay, 24 h DLI & no wash, SRB endpoint. It is filed as cell-based, human. The following applies: A549 2D monolayer, not washed, n = 3. As to the method: (§1) For each complex, two identical plates were prepared, one of which was irradiated with light, while the other was used as a dark control. […] Finally, at t = 96 h, 100 μL of cold trichloroacetic acid (10% w/v) was added to each well to fix the cells, and all plates were then transferred to a 4 °C refrigerator for 48 h before performing an SRB cell quantification endpoint assay.[72] Trichloroacetic acid was first removed and each plate was gently washed with demi water 3–5 times. Then, each well was dried in the air, and 100 μL of 0.6% SRB solution (0.6% w/v in 1% v/v acetic acid/H2O solution) was added into each well where it was allowed to stain for 30 min. Then, the plates were washed 3–5 times using an acetic acid solution (1% v/v). Once the plate was washed it was allowed to dry overnight. Then, 200 μL of 10 mM Tris base buffer was added to each well and the plate was allowed to sit on an orbital shaker for 0.5–16 h. After mixing, the absorbance of each well was determined by an M1000 Tecan Reader, reading at 510 nm. All experiments were conducted in independent biological triplicate. The obtained data were analyzed with Graphpad Prism 5 using the dose–response two-parameter Hill slope equation (eq 1) to obtain the half-maximal effective concentrations EC50 (defined as the concentration of drug that kills 50% of cells, compared to the untreated control). [drawing 1] 1

The next data set has as its system PC-3 cells. The description is as above. In kind it is cell-based, human. The following applies: PC-3 2D monolayer, not washed, SRB at 96 h, n = 3. Here is the method:
as §1

Data set [1] deals with U87MG cells. The data set is described as above. The following applies: U87MG 2D monolayer, not washed, SRB at 96 h, n = 3. It is filed as cell-based, human. Here is the method:
as §1

Another data set concerns U87MG spheroids. Briefly: 3D tumor spheroid viability assay, CellTiter-Glo 3D. The following applies: U87MG 3D spheroids, CellTiter-Glo 3D at 96 h, n = 3. It is filed as cell-based, human. As to the method:
The spheroids were incubated further under normoxia. […] After 30 min of shaking on an IKA Vibrax shaker at 500 rpm at room temperature, the luminescence in each well was measured with a Tecan microplate reader. […] All experiments were conducted in three biologically independent replicates.

The subject of data set [2] is U87MG cells. Briefly: Apopxin/Nuclear Green DCS1 double-staining cell death mode study. It is filed as cell-based, human. To be noted: 20 μM, 24 h incubation, 1 h after green light (13.1 J/cm^2), flow cytometry. As to the method: After 24 h of incubation, one plate labeled light was irradiated for 20 min using 520 nm green light (13.1 J/cm^2), and then both plates were allowed to incubate further for 1, 2, 6, or 24 h in a normoxia incubator. After incubation, the cells were trypsinized, collected, and washed with cold PBS twice. […] Cells after staining were detected by flow cytometry (CytoFLEX flow cytometer) immediately. Control groups with only assay buffer, only buffer and Apopxin Deep Red Indicator, only buffer and Nuclear Green DCS1, and all three were included to be used for gating during data analysis. Parameters APC (638 nm excitation, 660/10 nm emission) and FITC (488 nm excitation, 525/40 nm emission) were used considering their similar excitation/emission wavelength with two detectors Apopxin Deep Red Indicator, Ex/Em = 630/660 nm (apoptosis), and Nuclear Green DCS1, Ex/Em = 490/520 nm (necrosis).
On the technique in general: In flow cytometry, cells or beads pass a laser one at a time.

In data set [3] the test system is U87MG cells. Kind of data set: Intracellular ROS generation, CellROX Deep Red, flow cytometry. To be noted: 15 µM, 24 h.
Description: The generation of ROS (reactive oxygen species) in U87MG cells was measured using a ROS deep red fluorescence indicator (Abcam, ab186029). U87MG (1 × 10^5, 1 mL) were seeded into 12-well plates and incubated for 24 h in the dark under normoxia. The cells were then treated with 15 μM complexes with Opti-MEM, Λ-[1]Cl2, Δ-[1]Cl2, cisplatin, or Rose Bengal. There are two groups for each drug (dark + light). After 24 h of incubation under normoxia, the plate was washed with cold PBS once, and cells were trypsinized, harvested, and then resuspended in 150 μL of PBS. The cell suspension from the centrifuge tubes was transferred to 96-round-bottom well plates (Thermo Scientific, 268200), and the light group was irradiated for 20 min with 520 nm light (dose = 13.1 J/cm^2). After which, the Cellular ROS Deep Red dye (abcam, ab186029) was added with 1000× dilution, and cells were further stained for 1 h. Untreated cells were maintained as negative controls, whereas a 250 μM tBHP solution in Opti-MEM complete was administered as a positive control for ROS. The levels of intracellular ROS were then determined using the CytoFLEX flow cytometer. Forward versus side scatter (FSC vs SSC) gating was used to select the population of interest and avoid cell debris. A forward scatter height (FSC-H) vs forward scatter area (FSC-A) gating was used for doublet exclusion. Fluorescence measurements were acquired with the APC-A (638 nm excitation, 660/10 nm emission) channel given the known excitation/emission wavelengths of the ROS Deep Red dye (650/675 nm, respectively). All flow cytometry data were processed using FlowLogic 8.5 software.
Data set [4] can be described thus: Octanol-water partition coefficient (log P). The following applies: shake-flask, octanol-saturated water / water-saturated octanol, shaken 24 h in the dark, room temperature; Ru in water phase by ICP-MS; ± SD from 4 concentration points. It is filed as physicochemical. Here is the method: Each complex was first dissolved in octanol-saturated water (0.5 mM, 500 μL) and centrifuged (2000 rpm, 5 min) to isolate the undissolved solid. 450 μL of the supernatant was taken out as the stock solution; after that, 5, 10, 50, 100, and 150 μL of solution were added to the 15 mL tube, and more octanol-saturated water was added to adjust the final volume to 1 mL. 1 mL of water-saturated octanol was added further, and the tubes were mildly shaken (Gesellschaft für Labortechnik mbH, type3016) for 24 h under dark conditions. After that, the solutions were centrifuged for 5 min at 2000 rpm at room temperature, and 0.5 mL of the water phase (below phase) was moved to a 15 mL centrifuge tube by an Eppendorf pipette. Then, 0.1 mL of 65% HNO3 was added into the tube using an organic pipette gun, and each solution was shaken for 1 h. 9.9 mL of MilliQ water was added into each tube, making a total volume of 10 mL. To detect the Ru content of the stock solution, 10 μL of each stock solution was mixed with 0.490 mL of 65% HNO3, and the mixture was shaken for 1 h. Then, […] of MilliQ water was added to the tube, making a total volume of 10 mL. ICP-MS measurement was performed using a NexION 2000 from PerkinElmer. The ruthenium content in each well was obtained in ppb. The partition coefficients (log P) were calculated using the following eq 3 [drawing 3] 3
where [complex]total is the concentration of the complex in the control sample (where no water-saturated octanol was added) and [complex]water is the concentration of the complex in the aqueous layer.

Data set [5] concerns ITGAV knockdown U87MG cells (U87MG-kd). Briefly: Cellular Ru uptake by ICP-MS, 2 h. In kind it is cell-based, human. To be noted: 10 μM, dark, normoxia, n = 3. Here is the method: (§2) The uptake studies in U87MG and U87MG-kd cell lines were conducted as follows: 2 × 10^5 cells were cultured in 6-well plates for 24 h in Opti-MEM (2 mL), after which cells were incubated with Δ-[1]Cl2 or Δ-[3]Cl2 (10 μM) for 2 h, washed with cold PBS twice, harvested, concentrated in 200 μL of PBS, and counted using trypan blue and a cell counter (Bio-Rad). Finally, cell pellets were collected in 1.5 mL Eppendorf tubes after removing additional PBS by centrifuging at 500g; 0.25 mL of 65% HNO3 was then added to each tube, and all tubes were kept at room temperature (RT) overnight. The cell lysates were transferred to 15 mL centrifuge tubes (Biologix) and filled with 4.75 mL of MilliQ H2O.
(§3) The ruthenium concentration was measured in each sample by ICP-MS (NexION 2000, PerkinElmer), providing the metal content in each well in ppb. Combining the cell numbers and Ru uptake, averaging over technical triplicates, the ruthenium uptake values were finally expressed in μg Ru/million cells.

Data set [6] has as its system wild-type U87MG cells (U87MG-wt). Briefly: Cellular Ru uptake by ICP-MS, 2 h. The following applies: 10 μM, dark, normoxia, n = 3. In kind it is cell-based, human. Here is the method:
as §2, §3

For the next data set, the target named is T1, integrin αIIbβ3 (Homo sapiens, UniProt P05106+P08514).
T1 construct: Purified human platelet glycoprotein integrin αIIbβ3; purchased Enzyme Research Laboratories GP2b3a; host or cells: human platelets (natural source)
To be noted: literature values; read-out: Kd for the same integrin heterodimers (αIIbβ3); cited from earlier work. As to the method:
Since the ruthenium complexes were designed to target integrins, their interaction with the protein should be a key process for recognition, uptake, and toxicity. To check whether the ruthenium-coordinated peptide still retained the interaction binding affinity with the targeted integrin, the association constant (Ka) of both isomers of [1]Cl2 to integrin αIIbβ3 was measured using luminescence spectroscopy. In this assay, the emission intensity from aromatic residues (tryptophan, tyrosine, and phenylalanine) in integrin αIIbβ3 (λemi = 345 nm) was monitored upon the addition of different concen ...

[7] abbreviates: 1% O2, dark, 24 h treatment, read-out: EC50,dark.
The mark [8] stands for this setting: 1% O2, 520 nm, 7.22 mW/cm^2, 13.1 J/cm^2, 30 min, read-out: EC50,light.
Where [9] appears, read: 21% O2, dark, 24 h treatment, read-out: EC50,dark.
[10] abbreviates: 21% O2, 520 nm, 10.9 mW/cm^2, 13.1 J/cm^2, 20 min, read-out: EC50,light.

Consider `N.N.[Cl][Pt][Cl]` [cisplatin, reference compound], for which the EC50 was determined as 6.5 µM in the data set with A549 cells (1% O2, dark, 24 h treatment, SRB at 96 h, read-out: EC50,dark); 6.3 µM in the data set with A549 cells (1% O2, 520 nm, 7.22 mW/cm^2, 13.1 J/cm^2, 30 min, SRB at 96 h, read-out: EC50,light); 2.3 µM with A549 cells (21% O2, dark, 24 h treatment, SRB at t = 96 h, read-out: EC50,dark); 2.4 µM with A549 cells (21% O2, 24 h treatment, 520 nm, 10.9 mW/cm^2, 13.1 J/cm^2, 20 min, SRB at 96 h, read-out: EC50,light); 23.1 µM in the data set with PC-3 cells (setting [7]); 25.8 µM in the data set on PC-3 cells (setting [8]). Moreover, the EC50 in the data set on PC-3 cells (setting [9]) was determined as 4.5 µM; in the data set on PC-3 cells (setting [10]), 4.1 µM; in the data set with U87MG cells [1] (setting [7]) it was 13 µM; in the data set on U87MG cells [1] (setting [8]) it was 12.5 µM; in the data set on U87MG cells [1] (setting [9]) it was 2.8 µM; in the data set with U87MG cells [1] (setting [10]), 4 µM. Also, the EC50 stood at 8.6 µM with U87MG spheroids (setting [9]) and 7.9 µM in the data set with U87MG spheroids (21% O2, green light after 24 h treatment, read-out: EC50,light). Besides, the cell death mode entry in the data set with U87MG cells [2] is recorded as “mainly died via apoptosis”. For the same compound, in the data set with U87MG cells [3], the “Ratio of L/D (light/dark ROS ratio)” value is 0.81.
“[Ru(Ph2phen)2(κ^S,κ^N-Ac-MRADH-NH2)]Cl2 (sidechain bridge or staple) [Δ-[3]Cl2, Gly-Ala analogue of [1]Cl2]”: in data set [4], the “log P (octanol-water partition coefficient)” value is recorded as 0.02 ± 0.05. The “uptake amount compared to U87MG-wt cells” value in [5] is given as “taken up in similar amounts”. For the same compound, the “cellular uptake compared to Δ-[1]Cl2” value in data set [6] is “significantly lower”.
Consider fibrinogen, for which the Kd in the data set with integrin αIIbβ3 is 0.03 µM.
